Assay results taken from paper PMC10164576, “Interaction with the carboxy-terminal tip of SSB is critical for RecG function in E. coli” (Nucleic Acids Research, 2023).
Where no end group is shown, it is not given here.

Biological target: RecG R474E (Escherichia coli, UniProt P24230, R474E)
Test: Fluorescence anisotropy binding of 6-FAM-labelled SSB-Ct peptide to RecG R474E
Parameters: species or system E. coli
Settings: 10 nM 6-FAM peptide, pH 7.6, 25°C, triplicate, read-out: FP K D
Description: In vivo assembly mutagenesis ([78]) was used to introduce the R474E or R95A mutation into RecG overexpression plasmid pEAW111 to create variant overexpression plasmids pNJB3 and pEAW1324, respectively. RecG R474E or RecG R95A were expressed in STL2669/pT7pol26 and purified using the same purification scheme as wildtype RecG. The purified proteins appeared as single bands on SDS-PAGE gels and were quantified using monomer extinction coefficient ε280 nm = 5.022 × 10^4 M^−1 cm^−1. The RecG R95A preparation included a very weak nickase contaminant.
SSB peptides (sequences listed in Figure 2) were designed with an N-terminal tryptophan residue for quantification and N-terminal 6-FAM label (Genscript). […] Fluorescence polarization (FP) values were measured at 25°C using a Beacon 2000 Fluorescence Polarization System. Polarization values were normalized to the FP value measured at 0 nM RecG. […]
To more rigorously and quantitatively test the RecG HD2/SSB-Ct binding model, a RecG variant in which one of the putative SSB-binding residues is altered (RecG R474E) was purified and tested for binding to the SSB-Ct peptide and to full-length SSB in vitro. […] Binding was not detected in either titration (Figure 4C). […]

Sequence: WMDFDDDIPF [SSB-Ct peptide]
- Kd: > 30 µM
